Data set [1] relates to B16-F10. As to the kind of experiment: Antitumor activity against […] cells xenografted in C57BL/6 mouse assessed as reduction in tumor weight at 3.2 mg/kg, po measured after 14 days post transfection relative to control. In kind it is functional. As to conditions: 336 h. Background: Xenograft models place foreign cells or tissue in a host animal.
The subject of data set [2] is HUVEC. Put plainly: Antiinflammatory activity in HUVEC assessed as reduction in TNF-alpha induced ICAM1 protein expression at 5 uM incubated for 5 hrs followed by TNFalpha-induction and measured after 16 hrs by flow cytometric analysis relative to control. As to conditions: Homo sapiens. Type of data set: functional.
Data set [3] can be described thus: Drug concentration in rat brain cerebellum at […], po after 1 hr. Type of data set: ADME, organism-based. As to conditions: read-out: Ct.
The test system of data set [4] is B16-F10. Put plainly: Antitumor activity against […] cells xenografted in C57BL/6 mouse assessed as reduction in tumor volume at 3.2 mg/kg, po measured after 14 days post transfection relative to control. Type of data set: functional. As to conditions: 336 h.
Data set [5] is filed under the species Homo sapiens. Put plainly: Binding affinity to human LDL assessed per mg of protein.
Data set [6] in a line: Drug concentration in rat brain cortex at […], po after 1 hr. The conditions noted are these: read-out: Ct. In kind it is ADME, organism-based.
The nature of data set [7]: Plasma concentration in rat at 2 uM/kg, po after 2.5 hrs. In kind it is ADME, organism-based. The conditions noted are these: in vivo.
Data set [8] can be described thus: Drug concentration in rat brain at 2 umol/kg, po after 2.5 hrs. In kind it is ADME, organism-based. The conditions noted are these: read-out: Ct.
The subject of data set [9] is Caco-2. Put plainly: Antiproliferative activity against human Caco2 cells assessed as reduction in cell viability after 48 hrs by MTT assay. The conditions noted are these: Caco-2, 48 h. In kind it is functional, cell-based. In general terms: Formazan colour is commonly taken as a measure of viable cells.
The test system of data set [10] is B16-F10. Put plainly: Antitumor activity against […] cells xenografted in C57BL/6 mouse assessed as reduction in CXCL1 level at 3.2 mg/kg, po measured after 14 days post transfection relative to control. In kind it is functional. The conditions noted are these: 336 h.

Each structure is given as a SMILES string.

With `O=C(O)C1=C/C(=C/C=[N+]2/CCC[C@H]2C(=O)[O-])C[C@@H](C(=O)O)N1`, the figures for the inhibition in vivo at 3.2 mg/kg in data set [1], in data set [4] and in data set [10] were 83%, 86% and 42%, respectively. In [2], the inhibition at 5 µM was -15%. The figures for the concentration at 1 h in [3] and in data set [6] were 90 ng/g and 50 ng/g, respectively. Moreover, the Bmax in data set [5] amounted to 0.52 nmol. Moreover, the Cp in data set [7] was determined as 200 nM. Moreover, the concentration at 2.5 h in data set [8] worked out at 20 ng/g. The IC50 in [9] was 115 µM.

As usually defined, the inhibition in vivo is the change of the read-out against control, counted positive when it falls. By inhibition is commonly meant the drop in the measured response relative to a control, in per cent. One may read the IC50 as the midpoint of a concentration-inhibition curve.

The values above are taken from ChEMBL document CHEMBL4304776, “Indicaxanthin, a multi-target natural compound from Opuntia ficus-indica fruit: From its poly-pharmacological effects to biochemical mechanisms and molecular modelling studies” (Eur J Med Chem, 2019).
